Activity calls are given as the source filed them. No cut-off for these calls is given here. Non-standard residues stand in square brackets, D forms with d. Residues, ends and D or L forms follow the SMILES beside them. Dab = NCC[C@H](N)C(=O)O
How the values were obtained:
Staphylococcus aureus [1] = assay: Antimicrobial activity against Staphylococcus aureus ATCC 29213 assessed as inhibition of visible microbial growth incubated for 18 hrs by broth microdilution method; type: functional
Staphylococcus aureus [2] = assay: Antimicrobial activity against multidrug resistant Staphylococcus aureus assessed as inhibition of visible microbial growth incubated for 18 hrs by broth microdilution method; type: functional
Acinetobacter baumannii = assay: Antimicrobial activity against multidrug resistant Acinetobacter baumannii assessed as inhibition of visible microbial growth incubated for 18 hrs by broth microdilution method; type: functional
Pseudomonas aeruginosa [3] = assay: Antimicrobial activity against multidrug resistant Pseudomonas aeruginosa assessed as inhibition of visible microbial growth incubated for 18 hrs by broth microdilution method; type: functional
Escherichia coli = assay: Antimicrobial activity against multidrug resistant Escherichia coli assessed as inhibition of visible microbial growth incubated for 18 hrs by broth microdilution method; type: functional
[4] = Hemolytic activity in human red blood cell assessed as hemolysis at 128 microg/ml measured after 1 hrs by microplate reader assay relative to control; type: toxicity, cell-based, Erythrocyte; settings: red blood cells, at 128 µg/mL, read-out: Activity
[5] = Cytotoxicity against human LO2 cells assessed as survival rate at 64 microg/ml measured after 24 hrs by CCK-8 assay relative to control; type: toxicity, cell-based, L02; settings: at 64 µg/mL, read-out: Survival
Staphylococcus aureus [6] = assay: Antibacterial activity against multidrug resistant Staphylococcus aureus assessed as reduction in bacterial growth at 32 microg/mL by bactericidal kinetic assay; type: functional, organism-based; settings: dose 32.0 µg/ml, time 0.5-4 hrs
[7] = Cytotoxicity against human BEAS-2B cells assessed as inhibition of cell growth measured after 24 hrs by CCK-8 assay; type: toxicity, cell-based
[8] = Stability in 25% human plasma assessed as compound remaining measured after 24 hrs by RP-HPLC analysis; type: ADME, cell-free; settings: 25% plasma, read-out: Stability
Pseudomonas aeruginosa [9] = assay: Antibacterial activity against multidrug resistant Pseudomonas aeruginosa assessed as reduction in bacterial growth at 32 microg/mL measured after 1.5 hrs by bactericidal kinetic assay relative to control; type: functional; set-up: scale not given: the % may be the effect or the level left; settings: dose 32 µg/ml
Staphylococcus aureus [10] = assay: Induction of morphological changes in multidrug resistant Staphylococcus aureus assessed as surface roughening at 16 microg/ml incubated for 1 hrs by SEM analysis; type: functional, organism-based; settings: dose 16.0 µg/ml
Staphylococcus aureus [11] = assay: Induction of morphological changes in multidrug resistant Staphylococcus aureus assessed as presence of cellular debris at 16 microg/ml incubated for 1 hrs by SEM analysis; type: functional, organism-based; settings: dose 16.0 µg/ml
Pseudomonas aeruginosa [12] = assay: Drug resistance, ratio of MIC for multidrug resistant Pseudomonas aeruginosa after 16 passages to MIC for multidrug resistant Pseudomonas aeruginosa after first exposure; type: functional
Staphylococcus aureus [13] = assay: Drug resistance, ratio of MIC for multidrug resistant Staphylococcus aureus after 16 passages to MIC for multidrug resistant Staphylococcus aureus after first exposure; type: functional
Cell membrane [14] = assay: Disruption of cell membrane in multidrug resistant Staphylococcus aureus assessed as increase in red fluorescence at 16 microg/mL incubated after 2 hrs by SYTO9/PI double staining based fluorescence confocal microscopic analysis; type: subcellular; settings: dose 16.0 µg/ml
Cell membrane [15] = assay: Induction of outer cell membrane permeabilization in multidrug resistant Pseudomonas aeruginosa assessed as increase in fluorescence intensity measured for 12 mins by NPN uptake assay; type: subcellular; settings: dose 4-32 µg/ml
Cell membrane [16] = assay: Induction of outer cell membrane permeabilization in multidrug resistant Pseudomonas aeruginosa assessed as increase in fluorescence intensity at >16 microg/ml measured for 12 mins by NPN uptake assay; type: subcellular; settings: dose > 16.0 µg/ml
Cell membrane [17] = assay: Induction of cytoplasmic membrane depolarization in multidrug resistant Pseudomonas aeruginosa assessed as increase in fluorescence intensity measured for 12 min by DISC3-5 dye based fluorescence analysis; type: subcellular; settings: dose 4-32 µg/ml
Pseudomonas aeruginosa [18] = assay: Antimicrobial activity against multidrug resistant Pseudomonas aeruginosa at 1.9 to 500 microg/ml in presence of phosphatidylglycerol acid by checkerboard microdilution assay; type: functional, organism-based; settings: dose 1.9-500 µg/ml
[19] = Toxicity in female C57BL/6 mouse assessed as effect on body weight at 5 to 20 mg/kg, ip administered daily and measured for 5 days; type: organism-based; settings: in vivo, 120 h, dose 5-20 mg/kg, time 5 day
[20] = Toxicity in female C57BL/6 mouse assessed as effect on body weight at 20 mg/kg, ip administered daily and measured for 5 days; type: organism-based; settings: in vivo, 120 h, time 5 day
[21] = Nephrotoxicity in female C57BL/6 mouse assessed as change in BUN level at 20 mg/kg, ip administered daily and measured for 5 days; type: toxicity, organism-based; settings: in vivo, 120 h, time 5 day
[22] = Hepatotoxicity in female C57BL/6 mouse assessed as change in AST level at 20 mg/kg, ip administered daily and measured for 5 days; type: toxicity, organism-based; settings: in vivo, 120 h, time 5 day
[23] = Toxicity in female C57BL/6 mouse assessed as histopathological change in liver at 20 mg/kg, ip administered daily and measured for 5 days by H and E staining based analysis; type: organism-based; settings: in vivo, 120 h, time 5 day
[24] = Toxicity in female C57BL/6 mouse assessed as histopathological change in spleen at 20 mg/kg, ip administered daily and measured for 5 days by H and E staining based analysis; type: organism-based; settings: in vivo, 120 h, time 5 day
[25] = Toxicity in female C57BL/6 mouse assessed as histopathological change in lung at 20 mg/kg, ip administered daily and measured for 5 days by H and E staining based analysis; type: organism-based; settings: in vivo, 120 h, time 5 day
Pseudomonas aeruginosa [26] = assay: In vivo antibacterial activity against multidrug resistant Pseudomonas aeruginosa infected in acute peritonitis C57BL/6 mouse model assessed as increase in mouse survival at 5 to 20 mg/kg, ip measured after 12 hrs; type: functional, organism-based; settings: dose 5-20 mg/kg
Pseudomonas aeruginosa [27] = assay: In vivo antibacterial activity against multidrug resistant Pseudomonas aeruginosa infected in acute peritonitis C57BL/6 mouse model assessed as decrease in IL-6 level in serum at 5 to 20 mg/kg, ip measured after 12 hrs by ELISA; type: functional, organism-based; settings: dose 5-20 mg/kg
Pseudomonas aeruginosa [28] = assay: In vivo antibacterial activity against multidrug resistant Pseudomonas aeruginosa infected in acute peritonitis C57BL/6 mouse model assessed as reduction in bacterial load in liver at 10 to 20 mg/kg, ip measured after 12 hrs; type: functional, organism-based; settings: dose 10-20 mg/kg
Pseudomonas aeruginosa [29] = assay: In vivo antibacterial activity against multidrug resistant Pseudomonas aeruginosa infected in acute peritonitis C57BL/6 mouse model assessed as reduction in bacterial load in lung at 10 to 20 mg/kg, ip measured after 12 hrs; type: functional, organism-based; settings: dose 10-20 mg/kg
Pseudomonas aeruginosa [30] = assay: In vivo antibacterial activity against multidrug resistant Pseudomonas aeruginosa infected in acute peritonitis C57BL/6 mouse model assessed as reduction in pulmonary edema at 5 to 20 mg/kg, ip measured after 12 hrs by H and E staining based analysis; type: functional, organism-based; settings: dose 5-20 mg/kg
Pseudomonas aeruginosa [31] = assay: In vivo antibacterial activity against multidrug resistant Pseudomonas aeruginosa infected in acute peritonitis C57BL/6 mouse model assessed as reduction in tubular dilation at 5 to 20 mg/kg, ip measured after 12 hrs by H and E staining based analysis; type: functional, organism-based; settings: dose 5-20 mg/kg
Pseudomonas aeruginosa [32] = assay: Induction of morphological changes in multidrug resistant Pseudomonas aeruginosa assessed as effect on cell integrity at 16 microg/ml incubated for 1 hrs by SEM analysis; type: functional, organism-based; settings: dose 16.0 µg/ml
Pseudomonas aeruginosa [33] = assay: Induction of morphological changes in multidrug resistant Pseudomonas aeruginosa assessed as surface roughening at 16 microg/ml incubated for 1 hrs by SEM analysis; type: functional, organism-based; settings: dose 16.0 µg/ml
Pseudomonas aeruginosa [34] = assay: Induction of morphological changes in multidrug resistant Pseudomonas aeruginosa assessed as presence of cellular debris at 16 microg/ml incubated for 1 hrs by SEM analysis; type: functional, organism-based; settings: dose 16.0 µg/ml

Work on `CC(C)C[C@H](NC(=O)CN)C(=O)N[C@@H](CCCNC(=N)N)C(=O)N[C@@H](CCN)C(=O)N[C@@H](Cc1c[nH]c2ccccc12)C(=O)N[C@@H](CC(C)C)C(=O)N[C@@H](CCCNC(=N)N)C(=O)N[C@@H](CCN)C(=O)N[C@@H](Cc1ccccc1)C(=O)N[C@@H](CCN)C(=O)N[C@@H](CCN)C(=O)N[C@@H](Cc1ccccc1)C(=O)N[C@@H](Cc1c[nH]c2ccccc12)C(=O)O` (H-GLR[Dab]WLR[Dab]F[Dab][Dab]FW-OH) yielded an MIC (Staphylococcus aureus [1]) of 4.8 µM, an MIC (Staphylococcus aureus [2]) of 4.8 µM and an MIC (Acinetobacter baumannii) of 4.8 µM. It also gave an MIC (Pseudomonas aeruginosa [3]) of 4.8 µM, an MIC (Escherichia coli) of 4.8 µM and a hemolysis at 1 h, 128 µg/mL [4] of less than 10%. The viability at 24 h, 64 µg/mL [5] was greater than 80%, the Activity (Staphylococcus aureus [6]) was “Time-dependent-effect” and the CC50 at 24 h [7] was greater than 64 µg/mL. For the same compound, the remaining at 24 h [8] was 40%, the Activity (Pseudomonas aeruginosa [9]) was 100% and the Activity (Staphylococcus aureus [10]) was “Active”. The Activity (Staphylococcus aureus [11]) was “Active”, the Ratio (Pseudomonas aeruginosa [12]) was less than 2 and the Ratio (Staphylococcus aureus [13]) was less than 2. The Activity (Cell membrane [14]) was “Active”, the Activity (Cell membrane [15]) was “Active” and the Activity (Cell membrane [16]) was “Active”. The Activity (Cell membrane [17]) was “Dose-dependent-effect”, the Activity (Pseudomonas aeruginosa [18]) was “inactive” and the Activity [19] was “Non-toxic”. For the same compound, the Activity [20] was “Toxic”, the Activity [21] was “Non-toxic” and the Activity [22] was “Non-toxic”. The Activity [23] was “Non-toxic”, the Activity [24] was “Non-toxic” and the Activity [25] was “Non-toxic”. The Activity (Pseudomonas aeruginosa [26]) was “Active”, the Activity (Pseudomonas aeruginosa [27]) was “Active” and the Activity (Pseudomonas aeruginosa [28]) was “Active”. For the same compound, the Activity (Pseudomonas aeruginosa [29]) was “Active”, the Activity (Pseudomonas aeruginosa [30]) was “Active” and the Activity (Pseudomonas aeruginosa [31]) was “Active”. The Activity (Pseudomonas aeruginosa [32]) was “Active”, the Activity (Pseudomonas aeruginosa [33]) was “Active” and the Activity (Pseudomonas aeruginosa [34]) was “Active”.

Source: ChEMBL document CHEMBL6134827, “The discovery of novel antimicrobial peptides against drug-resistant bacteria based on fragments fusion strategy” (Eur J Med Chem, 2025)
